Series [1] relates to Green Peach Aphid (Myzus persicae) (GPA) (MYZUPE). In words: Bioassay for Green Peach Aphid, foliar spray on infested cabbage seedlings. It counts as in vivo. To be noted: 72 h, 200 ppm foliar spray on cabbage, graded after three days, Abbott-corrected % control, read-out: % Control (or Mortality) rating, GPA. As for the experimental part: Example A: Bioassays for Green Peach Aphid (Myzus persicae) (GPA) (MYZUPE)
Cabbage seedlings grown in 3-inch pots, with 2-3 small (3-5 cm) true leaves, were used as test substrate. The seedlings were infested with 20-50 GPA (wingless adult and nymph stages) one day prior to chemical application. Four pots with individual seedlings were used for each treatment. Test compounds (2 mg) were dissolved in 2 mL of acetonemethanol (1:1) solvent, forming stock solutions of 1000 ppm test compound. The stock solutions were diluted 5× with 0.025% Tween 20 in H2O to obtain the solution at 200 ppm test compound. A hand-held aspirator-type sprayer was used for spraying a solution to both sides of […] leaves until runoff. Reference plants (solvent check) were sprayed with the diluent only containing 20% by volume of acetonemethanol (1:1) solvent. Treated plants were held in a holding room for three days at approximately 25° C. and ambient relative humidity (RH) prior to grading. Evaluation was conducted by counting the number of live aphids per plant under a microscope. Percent control was measured by using Abbott's correction formula (W. S. Abbott, “A Method of Computing the Effectiveness of an Insecticide,” J. Econ. Entomol. 18 (1925), pp. 265-267) as follows. Corrected % Control=100*(X−Y)/X • where • X=No. of live aphids on solvent check plants and • Y=No. of live aphids on treated plants The results are indicated in the table entitled “TABLE 2. Biological Data for Green Peach Aphid (MYZUPE) and Sweetpotato Whitefly-crawler (WF) (BEMITA)” (See Table Section).

Series [2] has as its system Sweetpotato Whitefly-Crawler (Bemisia tabaci) (WF) (BEMITA). In words: Insecticidal test for Sweetpotato Whitefly-Crawler in foliar spray assay on cotton plants. Format: in vivo. To be noted: 216 h, 200 ppm foliar spray on cotton, graded after 9 days, Abbott-corrected % control, read-out: % Control (or Mortality) rating, WF. As for the experimental part: Example B: Insecticidal Test for Sweetpotato Whitefly-Crawler (Bemisia tabaci) (WF) (BEMITA) in Foliar Spray Assay
Cotton plants (Gossypium hirsutum) grown in 3-inch pots, with 1 small (4-5 cm) true leaves, were used as test substrate. The plants were infested with 200-400 whitefly eggs 4-5 days prior to chemical application. Four pots with individual plants were used for each treatment. Test compounds (2 mg) were dissolved in 1 mL of acetone solvent, forming stock solutions of 2000 ppm test compound. The stock solutions were diluted 10× with 0.025% Tween 20 in H2O (diluents) to obtain the solution at 200 ppm test compound. A hand-held aspirator-type sprayer was used for spraying a solution to both sides of cotton leaves until runoff. Reference plants (solvent check) were sprayed with the diluent only containing 10% by volume of acetone solvent. Treated plants were held in a holding room for 9 days at approximately 25° C. and ambient relative humidity (RH) prior to grading. Evaluation was conducted by counting the number of live 3-4 nymph stage per plant under a microscope. Percent control was measured by using Abbott's correction formula (W. S. Abbott, “A Method of Computing the Effectiveness of an Insecticide,” J. Econ. Entomol. 18 (1925), pp. 265-267) as follows. Corrected % Control=100*(X−Y)/X • where • X=No. of live nymphs on solvent check plants and • Y=No. of live nymphs on treated plants.
Biological Data for Green Peach Aphid (MYZUPE) and Sweetpotato Whitefly-crawler (WF) (BEMITA)” (See Table Section).

As for `CON=C(CS)C(=O)N(C)c1cn(-c2cccnc2)nc1Cl` [FA2, N-(3-chloro-1-(pyridin-3-yl)-1H-pyrazol-4-yl)-3-mercapto-2-(methoxyimino)-N-methylpropanamide], the melting point (in general, the temperature of the solid-liquid transition) was in the range of 116 to 121 °C.
For the molecule `C#CCN(C(=O)C(CS)=NOC)c1cn(-c2cccnc2)nc1Cl` [Compound F23, N-(3-Chloro-1-(pyridin-3-yl)-1H-pyrazol-4-yl)-3-mercapto-2-(methoxyimino)-N-(prop-2-yn-1-yl)propanamide], the mortality at 200 ppm in series [1] and in series [2] was 0 to 80% each time.
For the molecule `C#CCN(C(=O)C(CSC(c1ccccc1)(c1ccccc1)c1ccccc1)=NOCC)c1cn(-c2cccnc2)nc1Cl` [Compound F1, N-(3-chloro-1-(pyridin-3-yl)-1H-pyrazol-4-yl)-2-(ethoxyimino)-N-(prop-2-yn-1-yl)-3-(tritylthio)propanamide], the mortality (usually the share of the test organisms that died) at 200 ppm in series [1] was less than 0%; in series [2], 0 to 80%.
Taken in the same sequence, the figures for `C#CCN(C(=O)C(CSCC(F)(F)F)=NOC)c1cn(-c2cccnc2)nc1Cl` [Compound F6, N-(3-Chloro-1-(pyridin-3-yl)-1H-pyrazol-4-yl)-2-(methoxyimino)-N-(prop-2-yn-1-yl)-3-((2,2,2-trifluoroethyl)thio)propanamide] were 80 to 100% and 80 to 100%.

(Values after US9497966B2, “Pesticidal compositions and related methods” (DOW AGROSCIENCES LLC, priority 2013, dated 2016).)
